Data published in publication PMC8119466, “A screen of FDA-approved drugs identifies inhibitors of protein tyrosine phosphatase 4A3 (PTP4A3 or PRL-3)” (Scientific Reports, 2021).
Structures can show the parent of a compound that is named as a salt. Where two headings read alike, the source gives them in different places.

How the values were obtained:
Format in all cases: biochemical
[1] = molecular target: T1, recombinant PRL-2 (Homo sapiens, UniProt Q12974); test: In vitro phosphatase assay (DiFMUP hydrolysis), PRL-2;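 also: PRL-2 activity read as DiFMUP hydrolysis after 20 min at room temperature with drug, enzyme first pre-reduced at 4 °C for 20 min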
T1 construct: 6xHis (N, cleaved yes); made in house; host or cells: E. coli One Shot BL21 Star
T1 sequence (Q12974 1-167): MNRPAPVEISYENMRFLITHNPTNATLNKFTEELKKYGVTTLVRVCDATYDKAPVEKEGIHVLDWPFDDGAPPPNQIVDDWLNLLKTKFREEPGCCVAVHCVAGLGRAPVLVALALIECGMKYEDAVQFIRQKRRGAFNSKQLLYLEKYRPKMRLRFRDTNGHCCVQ

[2] = molecular target: T2, recombinant PRL-3 (Homo sapiens, UniProt O75365); test: In vitro phosphatase assay (DiFMUP hydrolysis), PRL-3; also: test concentration or dose not given here
T2 construct: 6xHis (N, cleaved yes); made in house; host or cells: E. coli One Shot BL21 Star

[3] = molecular target: T3, recombinant PRL-1 (Homo sapiens, UniProt Q93096); test: In vitro phosphatase assay (DiFMUP hydrolysis), PRL-1; also: test concentration or dose not given here
T3 construct: 6xHis (N, cleaved yes); made in house; host or cells: E. coli One Shot BL21 Star
T3 sequence (Q93096 1-173): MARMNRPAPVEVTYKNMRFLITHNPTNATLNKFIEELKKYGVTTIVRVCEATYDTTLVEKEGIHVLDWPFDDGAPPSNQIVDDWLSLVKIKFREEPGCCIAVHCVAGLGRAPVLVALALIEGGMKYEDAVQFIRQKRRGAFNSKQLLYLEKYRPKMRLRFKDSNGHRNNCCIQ

[4] = FDA-approved drug screen, compared to DMSO

T2 sequence (O75365 whole entry): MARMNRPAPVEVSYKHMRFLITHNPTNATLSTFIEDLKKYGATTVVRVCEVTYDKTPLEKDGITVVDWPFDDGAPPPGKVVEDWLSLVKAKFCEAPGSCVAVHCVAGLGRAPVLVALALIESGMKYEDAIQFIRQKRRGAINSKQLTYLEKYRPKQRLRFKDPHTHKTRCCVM

Row | SMILES | % Phosphatase Activity (compared to DMSO) PRL-2 [1, 4] [%] | % Phosphatase Activity (compared to DMSO) PRL-3 [2, 4] [%] | % Phosphatase Activity (compared to DMSO) PRL-1 [3, 4] [%] | % Phosphatase Activity (compared to DMSO) PRL-2 [1] [%] | % Phosphatase Activity (compared to DMSO) PRL-3 [2] [%] | % Phosphatase Activity (compared to DMSO) PRL-1 [3] [%]
1 | O=NN(CCCl)C(=O)NC1CCCCC1 [Lomustine] | 105 | 94 | 96 |  |  | 
2 | NC(=O)N1CCC(CC(=O)N2CCC([C@H]3c4ncc(Br)cc4CCc4cc(Cl)cc(Br)c43)CC2)CC1 [Lonafarnib] | 103 | 97 | 97 |  |  | 
3 | O=C(O)c1nn(Cc2ccc(Cl)cc2Cl)c2ccccc12 [Lonidamine] | 106 | 85 | 102 |  |  | 
4 | CN(C)C(=O)C(CCN1CCC(O)(c2ccc(Cl)cc2)CC1)(c1ccccc1)c1ccccc1 [Loperamide HCl] | 99 | 81 | 105 |  |  | 
5 | Cc1cccc(C)c1OCC(=O)N[C@@H](Cc1ccccc1)[C@@H](O)C[C@H](Cc1ccccc1)NC(=O)[C@H](C(C)C)N1CCCNC1=O [Lopinavir] | 101 | 62 | 90 |  |  | 
6 | CCOC(=O)N1CCC(=C2c3ccc(Cl)cc3CCc3cccnc32)CC1 [Loratadine] | 90 | 65 | 89 |  |  | 
7 | CN1C(C(=O)Nc2ccccn2)=C(O)c2sc(Cl)cc2S1(=O)=O [Lornoxicam] | 84 | 81 | 73 |  |  | 
8 | CCCCc1nc(Cl)c(CO)n1Cc1ccc(-c2ccccc2-c2nnn[n-]2)cc1.[K+] [Losartan Potassium (DuP 753)] | 93 | 71 | 94 |  |  | 
9 | Cc1c(F)cc(C(=O)NC2CC2)cc1-c1ccc(C(=O)NCC(C)(C)C)cn1 [Losmapimod (GW856553X)] | 66 | 103 | 91 |  |  | 
10 | CCOC(=O)O[C@]1(C(=O)OCCl)CC[C@H]2[C@@H]3CCC4=CC(=O)C=C[C@]4(C)[C@H]3[C@@H](O)C[C@@]21C [Loteprednol etabonate] | 89 | 82 | 100 |  |  | 
11 | CC[C@H](C)C(=O)O[C@H]1C[C@@H](C)C=C2C=C[C@H](C)[C@H](CC[C@@H]3C[C@@H](O)CC(=O)O3)[C@H]21 [Lovastatin] | 93 | 87 | 89 |  |  | 
12 | CN1CCN(C2=Nc3ccccc3Oc3ccc(Cl)cc32)CC1 [Loxapine Succinate] | 110 | 90 | 96 |  |  | 
13 | CC(C(=O)O)c1ccc(CC2CCCC2=O)cc1 (stereo not drawn) [Loxoprofen] | 83 | 102 | 109 |  |  | 
14 | N#C/C(=C1/SC[C@@H](c2ccc(Cl)cc2Cl)S1)n1ccnc1 [Luliconazole] | 90 | 83 | 98 |  |  | 
15 | Cn1cnc2c(F)c(Nc3ccc(Br)cc3F)c(C(=O)NOCCO)cc21 [MEK162 (ARRY-162, ARRY-438162)] | 72 | 91 | 85 |  |  | 
16 | CC(C)C[C@H](NC(=O)CNC(=O)c1cc(Cl)ccc1Cl)B(O)O [MLN2238] | 105 | 86 | 102 |  |  | 
17 | CCCNS(=O)(=O)Nc1ncnc(OCCOc2ncc(Br)cn2)c1-c1ccc(Br)cc1 [Macitentan] | 75 | 85 | 93 |  |  | 
18 | CC(C)OC(=O)C(C(=O)OC(C)C)=C1SC=CS1 [Malotilate] | 58 | 61 | 70 |  |  | 
19 | COC(=O)C1=C(C)NC(C)=C(C(=O)OCCN2CCN(C(c3ccccc3)c3ccccc3)CC2)C1c1cccc([N+](=O)[O-])c1.Cl.Cl (stereo not drawn) [Manidipine 2HCl] | 87 | 82 | 97 |  |  | 
20 | CNCCCC12CCC(c3ccccc31)c1ccccc12 [Maprotiline HCl] |  |  |  | 116 | 87 | 127

Row | SMILES | % Phosphatase Activity (compared to DMSO) PRL-2 [1, 4] [%] | % Phosphatase Activity (compared to DMSO) PRL-3 [2, 4] [%] | % Phosphatase Activity (compared to DMSO) PRL-1 [3, 4] [%] | % Phosphatase Activity (compared to DMSO) PRL-2 [1] [%] | % Phosphatase Activity (compared to DMSO) PRL-3 [2] [%] | % Phosphatase Activity (compared to DMSO) PRL-1 [3] [%]
21 | CN1CCN(c2c(F)cc3c(=O)c(C(=O)O)cn4c3c2OCN4C)CC1 [Marbofloxacin] | 386 | 180 | 345 |  |  | 
22 | CNC(=O)[C@@H](NC(=O)[C@H](CC(C)C)[C@H](O)C(=O)NO)C(C)(C)C [Marimastat(BB-2516)] | 77 | 91 | 85 |  |  | 
23 | Cc1ccc(NC(=O)c2ccc(CN3CCN(C)CC3)cc2)cc1Nc1nc(-c2cccnc2)cs1 [Masitinib (AB1010)] | 117 | 92 | 115 |  |  | 
24 | COC(=O)Nc1nc2ccc(C(=O)c3ccccc3)cc2[nH]1 [Mebendazole] | 83 | 79 | 90 |  |  | 
25 | CCOC(=O)c1c(C)n(C)c2ccc(O)cc12 [Mecarbinate] | 100 | 77 | 108 |  |  | 
26 | Cc1cccc(CN2CCN(C(c3ccccc3)c3ccc(Cl)cc3)CC2)c1.Cl.Cl (stereo not drawn) [Meclizine 2HCl] | 112 | 96 | 103 |  |  | 
27 | Cc1ccc(Cl)c(Nc2ccccc2C(=O)O)c1Cl [Meclofenamate Sodium] | 104 | 81 | 99 |  |  | 
28 | Cc1cccc(C(C)c2cnc[nH]2)c1C (stereo not drawn) [Medetomidine HCl] |  |  |  | 113 | 99 | 109
29 | CC(=O)O[C@]1(C(C)=O)CC[C@H]2[C@@H]3C[C@H](C)C4=CC(=O)CC[C@]4(C)[C@H]3CC[C@@]21C [Medroxyprogesterone acetate] | 89 | 85 | 89 |  |  | 
30 | Cc1cccc(Nc2ccccc2C(=O)O)c1C [Mefenamic Acid] | 107 | 82 | 98 |  |  | 
31 | OC(c1cc(C(F)(F)F)nc2c(C(F)(F)F)cccc12)C1CCCCN1 (stereo not drawn) [Mefloquine HCl] | 106 | 109 | 100 |  |  | 
32 | CC(=O)O[C@]1(C(C)=O)CC[C@H]2[C@@H]3C=C(C)C4=CC(=O)CC[C@]4(C)[C@H]3CC[C@@]21C [Megestrol Acetate] | 92 | 67 | 86 |  |  | 
33 | CNC[C@H](O)[C@@H](O)[C@H](O)[C@H](O)CO [Meglumine] | 125 | 110 | 105 |  |  | 
34 | COc1ccc2[nH]cc(CCNC(C)=O)c2c1 [Melatonin] | 108 | 81 | 125 |  |  | 
35 | Cc1cnc(NC(=O)C2=C(O)c3ccccc3S(=O)(=O)N2C)s1 [Meloxicam] | 75 | 83 | 74 |  |  | 
36 | CC12CC3CC(C)(C1)CC(N)(C3)C2 [Memantine HCl] | 107 | 94 | 83 |  |  | 
37 | CC1=CC(=O)c2ccccc2C1=O [Menadione] | 75 | 62 | 62 |  |  | 
38 | C[N+]1(C)CCCC(OC(=O)C(O)(c2ccccc2)c2ccccc2)C1 (stereo not drawn) [Mepenzolate Bromide] | 93 | 80 | 93 |  |  | 
39 | [O-][n+]1cccc(CO)c1 [Mepiroxol] | 112 | 87 | 100 |  |  | 
40 | Cc1cccc(C)c1NC(=O)C1CCCCN1C (stereo not drawn) [Mepivacaine HCl] | 104 | 87 | 86 |  |  | 
